Reference: patent US20250313563A1, “GLYCOGEN SYNTHASE KINASE 3 INHIBITORS AND USES THEREOF” (The Broad Institute, Inc., priority 2022, published 2025)
Like-named read-outs stand apart in the source and are kept apart here.

Tests used:
[1] = target: GSK3α (GST-full length GSK3α) (Homo sapiens (Human), UniProt P49840); assay: GSK3α TR-FRET kinase assay; format: biochemical
In short: (§1)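 Readout: anti-pSer641 Tb antibody/streptavidin-d2 signal after 60 min, expressed as 665/615 ratio and fitted versus log concentration for IC50. Enzyme: 1 nM GST-GSK3 (α or β), compound-preincubated 30 min. Conditions: pH 7.5 Tris buffer with MgCl2, DTT, BSA; ATP at 4 or 2 μM, or 1 mM; 100 min.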

[2] = Microsomal stability (MIC), mouse; format: in vitro ADME, mouse (CD-1); conditions: mouse liver microsomes; for half-life at 1 μM: CD-1, read-out: Microsome stability (mouse), in vitro T1/2
Procedure: (§2) Stability of compound in liver microsomes was tested in duplicate by incubating compound at 1 μM for 60 minutes at 37° C. Compound level at 60 minutes was compared to level at 0 minutes, and percent remaining was calculated. Assay Parameters
(§3) Available species: human and mouse (CD-1). Compound requirements: 5 μL of a 10 mM DMSO solution. Incubation time: 60 minutes at 37° C. Test Concentration: 1 μM.
(§4) Microsomes with NADPH without compound-matrix interference. Microsomes plus compound without NADPH—non-enzymatic instability.

[3] = target: GSK3b (GST-full length GSK3b) (Homo sapiens (Human), UniProt P49841); assay: GSK3b TR-FRET kinase assay; format: biochemical
Chain of GSK3b (GST-full length GSK3b) (P49841 whole entry): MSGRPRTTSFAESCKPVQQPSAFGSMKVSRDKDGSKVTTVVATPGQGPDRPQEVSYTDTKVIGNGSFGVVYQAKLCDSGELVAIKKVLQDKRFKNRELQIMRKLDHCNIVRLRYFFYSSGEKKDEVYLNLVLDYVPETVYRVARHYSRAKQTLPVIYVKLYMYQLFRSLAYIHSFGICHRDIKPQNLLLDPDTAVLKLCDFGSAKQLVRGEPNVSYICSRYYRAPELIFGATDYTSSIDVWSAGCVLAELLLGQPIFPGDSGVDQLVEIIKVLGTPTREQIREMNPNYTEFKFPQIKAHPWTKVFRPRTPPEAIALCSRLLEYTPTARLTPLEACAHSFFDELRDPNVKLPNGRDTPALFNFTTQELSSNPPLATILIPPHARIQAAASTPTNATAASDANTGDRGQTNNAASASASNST
In short: as §1

[4] = Microsomal stability (MIC), human; format: in vitro ADME; conditions: human liver microsomes
Procedure: as §2, §3, §4

[5] = system: MDR1-MDCK cell monolayers; assay: MDR1/MDCK assay (blood-brain barrier penetration potential); format: in vitro ADME; conditions: 5 μM, pH 7.4, 120 minutes; for MDCK permeability (MDR1-MDCK); Mean; Papp (A − B): A to B; for MDCK permeability (MDR1-MDCK); Mean; Papp (B − A): B to A
Procedure: The MDR1/MDCK assay is run at Absorption Systems. This assay is used to determine the blood-brain barrier (BBB) penetration potential of a test compound using MDR1-MDCK cell monolayers. Catalog number EA203.
• Test compound at 5 μM in HBSSg with maximum DMSO concentration not greater than 1%.
• Confluent monolayers of MDR1-MDCK cells, 7 to 11 days old.
• Receiver well with 1% BSA in modified Hanks buffer (HBSSg) • Apical and basolateral side at pH 7.4 • Dose two monolayers in each direction (N=2) • Dose apical side for (A to B) assessment • Dose basolateral side for (B to A) assessment • Sample both apical and basolateral sides at 120 minutes • Determine the concentrations of test compound using a generic LC-MS/MS method with a minimum 4 point calibration curve.
• The quality of the cell monolayer batch is verified using control compounds before monolayers are released for use • The quality of each monolayer used in the assay is verified by a TEER measurement and by calculating the Papp for a control compound.

[6] = GSK3-A (TR-FRET 1 mM ATP), GMean, IC50, 1 mM ATP, geometric mean
[7] = GSK3-B (TR-FRET 1 mM ATP), GMean, IC50, 1 mM ATP, geometric mean
[8] = read-out: GSK3-A (TR-FRET 1 mM ATP), GMean, IC50, 1 mM ATP, geometric mean
[9] = read-out: GSK3-B (TR-FRET 1 mM ATP), GMean, IC50, 1 mM ATP, geometric mean
[10] = 1 nM GSK3α, 4 μM ATP, 30 minute preincubation, Table 16, read-out: GSK3-A TR-FRET BIOCHEMICAL (TR-FRET), IC50
[11] = 1 nM GSK3b, 2 μM ATP, 30 minute preincubation, Table 16, read-out: GSK3-B TR-FRET BIOCHEMICAL (TR-FRET), IC50
[12] = 1 nM GSK3α, 4 μM ATP, 30 minute preincubation, Table 16, read-out: GSK3-A TR-FRET BIOCHEMICAL (TR-FRET)
[13] = 1 nM GSK3b, 2 μM ATP, 30 minute preincubation, Table 16, read-out: GSK3-B TR-FRET BIOCHEMICAL (TR-FRET)

Chain of GSK3α (GST-full length GSK3α) (P49840 whole entry): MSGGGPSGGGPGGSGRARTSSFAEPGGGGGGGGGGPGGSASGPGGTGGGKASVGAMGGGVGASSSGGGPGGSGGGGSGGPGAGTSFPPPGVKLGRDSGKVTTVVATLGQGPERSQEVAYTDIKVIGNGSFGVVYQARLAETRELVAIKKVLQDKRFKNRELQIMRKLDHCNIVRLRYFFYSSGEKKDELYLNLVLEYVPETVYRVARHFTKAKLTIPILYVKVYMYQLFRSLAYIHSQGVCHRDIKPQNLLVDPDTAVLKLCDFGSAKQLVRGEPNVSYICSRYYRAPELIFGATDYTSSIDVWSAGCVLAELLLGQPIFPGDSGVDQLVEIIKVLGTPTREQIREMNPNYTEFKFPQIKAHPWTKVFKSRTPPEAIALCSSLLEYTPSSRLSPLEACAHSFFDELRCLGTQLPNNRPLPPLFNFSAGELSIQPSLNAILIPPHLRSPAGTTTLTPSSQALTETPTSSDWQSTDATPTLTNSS

IC50 [1, 8] [nM] | IC50 [3, 9] [nM] | MDCK permeability (MDR1-MDCK); Mean; Papp Ratio (B − A/A − B) (efflux ratio) [5] | MDCK permeability (MDR1-MDCK); Mean; Papp (A − B) [5] | MDCK permeability (MDR1-MDCK); Mean; Papp (B − A) [5] | Structure (SMILES) | other results
1000 to 5000 | 100 to 1000 |  |  |  | CC(C)(C)Cc1[nH]nc2c1C1(CN(S(=O)(=O)CC3CC3)C1)C1=C(CC3(CCC3)CC1=O)N2 [Compound 107829] | Microsome stability (mouse); in vitro T1/2 [2]: 2.084 min; Microsome stability (human); in vitro T1/2 [4]: 8.877 min
1000 to 5000 | 100 to 1000 | 120 | 0.47 10^−6 cm/s | 56.2 10^−6 cm/s | CN(C)S(=O)(=O)c1cccc(C2(C)C3=C(CC(C)(C)CC3=O)Nc3n[nH]c(CC(C)(C)C)c32)c1 (centres unmarked) [Compound 126012] | 
1000 to 5000 | 100 to 1000 | 8.9 | 6.48 10^−6 cm/s | 57.6 10^−6 cm/s | CC(C)(C)Cc1[nH]nc2c1C(C)(c1cccc(S(=O)(=O)C(F)(F)F)c1)C1=C(CC(C)(C)CC1=O)N2 (centres unmarked) [Compound 126395] | 
100 to 1000 | 1000 to 5000 |  |  |  | CC[C@@]1(c2cccc(-c3ccncc3C(F)(F)F)c2)C2=C(CC(C)(C)C2=O)Nc2n[nH]cc21 [Compound 952759] | IC50 [1, 10]: ≤ 100 nM; IC50 [3, 11]: ≤ 100 nM

Further lines, the molecule ahead of its results:

Structure (SMILES) | IC50 [1, 8] [nM] | IC50 [3, 9] [nM] | MDCK permeability (MDR1-MDCK); Mean; Papp Ratio (B − A/A − B) (efflux ratio) [5] | MDCK permeability (MDR1-MDCK); Mean; Papp (A − B) [5] | MDCK permeability (MDR1-MDCK); Mean; Papp (B − A) [5] | other results
Cc1[nH]nc2c1C1(CN(S(=O)(=O)CC3CC3)C1)C1=C(CC(C)(C)CC1=O)N2 [Compound 107828] |  |  |  |  |  | IC50 [1, 6]: ≤ 100 nM; half-life at 1 μM [2]: 6.49 min; IC50 [3, 7]: 100 to 1000 nM
CC(C)(C)Cc1[nH]nc2c1C(C)(c1cccc(S(=O)(=O)CC3CC3)c1)C1=C(CC(C)(C)NC1=O)N2 (centres unmarked) [Compound 108005] | 100 to 1000 | 100 to 1000 |  |  |  | Microsome stability (mouse); in vitro T1/2 [2]: 0.69 min
COc1cncc(F)c1-c1cccc([C@]2(C)C3=C(CC(C)(C)CC3=O)Nc3n[nH]c(CC(C)(C)C)c32)c1 [Compound 108954] |  |  |  |  |  | IC50 [1, 6]: 1000 to 5000 nM; half-life at 1 μM [2]: 8.59 min; IC50 [3, 7]: 100 to 1000 nM
CC1(C)CC(=O)C2=C(C1)Nc1n[nH]c(C3CC3)c1C21CN(S(=O)(=O)CC2CC2)C1 [Compound 109152] |  |  |  |  |  | IC50 [1, 6]: 100 to 1000 nM; half-life at 1 μM [2]: 0.97 min; IC50 [3, 7]: 100 to 1000 nM
Cn1cncc1-c1cccc(C2(C)C3=C(CC(C)(C)CC3=O)Nc3n[nH]c(CC(C)(C)C)c32)c1 (centres unmarked) [Compound 126014] | 100 to 1000 | 100 to 1000 | 187 | 0.17 10^−6 cm/s | 32.1 10^−6 cm/s | 
C[S+]([O-])c1cccc(C2(C)C3=C(CC(C)(C)CC3=O)Nc3n[nH]c(CC(C)(C)C)c32)c1 (centres unmarked) [Compound 126190] | 1000 to 5000 | 100 to 1000 | 199 | 0.08 10^−6 cm/s | 15.7 10^−6 cm/s | 
Cn1cc(-c2cccc(C3(C)C4=C(CC(C)(C)CC4=O)Nc4n[nH]c(CC(C)(C)C)c43)c2)cn1 (centres unmarked) [Compound 126393] | 1000 to 5000 | 100 to 1000 | 92.5 | 0.59 10^−6 cm/s | 54.5 10^−6 cm/s | 
CC(C)(C)Cc1[nH]nc2c1C(C)(c1cccc(N3CCOCC3)c1)C1=C(CC(C)(C)CC1=O)N2 (centres unmarked) [Compound 126400] | 1000 to 5000 | 100 to 1000 | 119 | 0.41 10^−6 cm/s | 48.9 10^−6 cm/s | 
CC[C@]1(c2cccc(-c3c(C)cnc4c(C)cccc34)c2)C2=C(CC(C)(C)NC2=O)Nc2n[nH]cc21 [Compound 952760] |  |  |  |  |  | IC50 [1, 10]: > 5000 nM; IC50 [3, 11]: > 5000 nM
CC[C@]1(c2cccc(-c3ccnc4c(C)cccc34)c2)C2=C(CC(C)(C)NC2=O)Nc2n[nH]cc21 [Compound 952909] |  |  |  |  |  | IC50 [1, 10]: ≤ 100 nM; IC50 [3, 11]: 100 to 1000 nM
CC[C@@]1(c2ccccc2)C2=C(Nc3n[nH]cc31)[C@@H](F)C(C)(C)CC2=O [Compound 957196] |  |  |  |  |  | IC50 [1, 12]: > 5000 nM; IC50 [3, 13]: > 5000 nM
CC[C@@]1(c2ccccc2)C2=C(Nc3n[nH]cc31)[C@H](F)C(C)(C)CC2=O [Compound 957197] |  |  |  |  |  | IC50 [1, 12]: 100 to 1000 nM; IC50 [1, 6]: > 5000 nM; IC50 [3, 13]: 1000 to 5000 nM; IC50 [3, 7]: > 5000 nM
CC[C@]1(c2ccccc2)C2=C(Nc3n[nH]cc31)[C@@H](F)C(C)(C)CC2=O [Compound 957199] |  |  |  |  |  | IC50 [1, 12]: > 5000 nM; IC50 [3, 13]: > 5000 nM
